Laboratory results published in ChEMBL document CHEMBL3124811, “Potent and selective double-headed thiophene-2-carboximidamide inhibitors of neuronal nitric oxide synthase for the treatment of melanoma” (J Med Chem, 2014).

Experiments:
[1] = Selectivity ratio of Ki(app) for recombinant bovine eNOS to Ki(app) for recombinant rat nNOS
[2] = Selectivity ratio of Ki(app) for recombinant mouse iNOS to Ki(app) for recombinant rat nNOS
Nitric oxide synthase 3 = target: T1, Nitric oxide synthase 3 (Bos taurus, UniProt P29473)
T1 sequence (P29473 whole entry): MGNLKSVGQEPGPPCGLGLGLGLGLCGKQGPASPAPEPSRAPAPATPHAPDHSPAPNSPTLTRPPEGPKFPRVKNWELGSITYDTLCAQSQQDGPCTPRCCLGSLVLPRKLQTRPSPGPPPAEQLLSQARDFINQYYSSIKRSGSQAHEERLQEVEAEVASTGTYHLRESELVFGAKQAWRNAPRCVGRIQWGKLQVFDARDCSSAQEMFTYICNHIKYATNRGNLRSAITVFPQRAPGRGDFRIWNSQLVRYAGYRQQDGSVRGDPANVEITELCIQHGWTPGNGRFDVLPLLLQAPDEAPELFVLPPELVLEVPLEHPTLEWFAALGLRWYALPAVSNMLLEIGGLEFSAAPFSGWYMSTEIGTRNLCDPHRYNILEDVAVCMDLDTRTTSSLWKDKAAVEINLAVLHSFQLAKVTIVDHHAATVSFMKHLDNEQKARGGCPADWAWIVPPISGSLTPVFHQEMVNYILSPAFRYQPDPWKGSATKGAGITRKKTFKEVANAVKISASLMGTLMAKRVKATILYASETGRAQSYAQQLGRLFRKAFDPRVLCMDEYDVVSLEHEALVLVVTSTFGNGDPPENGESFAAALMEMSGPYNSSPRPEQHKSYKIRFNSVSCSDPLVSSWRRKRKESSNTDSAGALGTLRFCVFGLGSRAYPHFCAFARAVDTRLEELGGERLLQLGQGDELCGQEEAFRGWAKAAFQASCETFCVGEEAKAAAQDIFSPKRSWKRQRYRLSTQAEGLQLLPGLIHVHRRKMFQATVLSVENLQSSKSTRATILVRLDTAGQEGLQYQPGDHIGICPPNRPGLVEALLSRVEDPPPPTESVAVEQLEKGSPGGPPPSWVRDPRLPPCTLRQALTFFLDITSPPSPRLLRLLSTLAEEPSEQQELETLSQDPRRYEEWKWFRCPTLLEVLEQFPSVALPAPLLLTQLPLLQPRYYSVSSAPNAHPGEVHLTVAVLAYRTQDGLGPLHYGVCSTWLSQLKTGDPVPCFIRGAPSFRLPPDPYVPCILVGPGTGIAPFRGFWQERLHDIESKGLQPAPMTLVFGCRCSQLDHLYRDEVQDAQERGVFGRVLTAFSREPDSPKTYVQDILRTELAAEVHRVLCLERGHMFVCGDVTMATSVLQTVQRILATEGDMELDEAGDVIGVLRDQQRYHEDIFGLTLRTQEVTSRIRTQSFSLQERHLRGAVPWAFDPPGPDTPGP

Nitric oxide synthase 1 = Nitric oxide synthase 1 (Rattus norvegicus, UniProt P29476)
Sequence of Nitric oxide synthase 1 (P29476 whole entry): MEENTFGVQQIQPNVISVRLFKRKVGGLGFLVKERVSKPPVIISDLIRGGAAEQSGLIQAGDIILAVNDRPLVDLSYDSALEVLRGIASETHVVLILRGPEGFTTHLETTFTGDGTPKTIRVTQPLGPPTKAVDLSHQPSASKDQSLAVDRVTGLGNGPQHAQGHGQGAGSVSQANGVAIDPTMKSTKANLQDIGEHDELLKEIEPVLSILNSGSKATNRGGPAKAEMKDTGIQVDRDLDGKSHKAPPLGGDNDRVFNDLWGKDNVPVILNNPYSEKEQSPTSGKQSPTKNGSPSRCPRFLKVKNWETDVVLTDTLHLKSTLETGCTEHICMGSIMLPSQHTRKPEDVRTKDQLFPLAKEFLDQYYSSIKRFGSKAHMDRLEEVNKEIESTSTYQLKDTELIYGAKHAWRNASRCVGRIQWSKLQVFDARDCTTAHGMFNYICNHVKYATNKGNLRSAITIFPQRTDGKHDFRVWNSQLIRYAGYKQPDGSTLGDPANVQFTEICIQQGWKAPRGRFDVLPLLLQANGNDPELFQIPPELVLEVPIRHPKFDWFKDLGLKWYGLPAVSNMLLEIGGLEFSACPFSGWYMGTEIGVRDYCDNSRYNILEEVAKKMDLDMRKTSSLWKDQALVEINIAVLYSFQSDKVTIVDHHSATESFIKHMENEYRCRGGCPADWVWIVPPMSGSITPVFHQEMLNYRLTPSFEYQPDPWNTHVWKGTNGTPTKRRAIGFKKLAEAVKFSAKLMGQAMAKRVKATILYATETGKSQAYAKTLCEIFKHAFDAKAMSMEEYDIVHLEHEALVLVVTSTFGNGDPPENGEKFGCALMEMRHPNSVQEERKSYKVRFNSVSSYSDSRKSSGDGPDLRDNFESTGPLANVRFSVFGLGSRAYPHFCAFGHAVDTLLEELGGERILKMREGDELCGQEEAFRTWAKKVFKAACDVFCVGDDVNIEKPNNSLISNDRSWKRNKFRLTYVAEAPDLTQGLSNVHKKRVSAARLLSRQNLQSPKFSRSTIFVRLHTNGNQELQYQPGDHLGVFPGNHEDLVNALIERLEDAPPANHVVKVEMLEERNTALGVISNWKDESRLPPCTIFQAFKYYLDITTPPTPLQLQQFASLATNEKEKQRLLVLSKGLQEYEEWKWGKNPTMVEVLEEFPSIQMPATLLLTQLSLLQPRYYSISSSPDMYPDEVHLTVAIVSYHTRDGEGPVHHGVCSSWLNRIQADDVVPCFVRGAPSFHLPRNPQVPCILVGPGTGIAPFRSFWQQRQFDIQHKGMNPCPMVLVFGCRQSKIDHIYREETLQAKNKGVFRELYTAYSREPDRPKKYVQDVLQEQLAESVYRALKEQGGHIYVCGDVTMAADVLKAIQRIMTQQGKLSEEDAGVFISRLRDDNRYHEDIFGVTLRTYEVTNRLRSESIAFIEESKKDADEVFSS

[3] = target: T2, Nitric oxide synthase, inducible (Mus musculus, UniProt P29477)
T2 sequence (P29477 whole entry): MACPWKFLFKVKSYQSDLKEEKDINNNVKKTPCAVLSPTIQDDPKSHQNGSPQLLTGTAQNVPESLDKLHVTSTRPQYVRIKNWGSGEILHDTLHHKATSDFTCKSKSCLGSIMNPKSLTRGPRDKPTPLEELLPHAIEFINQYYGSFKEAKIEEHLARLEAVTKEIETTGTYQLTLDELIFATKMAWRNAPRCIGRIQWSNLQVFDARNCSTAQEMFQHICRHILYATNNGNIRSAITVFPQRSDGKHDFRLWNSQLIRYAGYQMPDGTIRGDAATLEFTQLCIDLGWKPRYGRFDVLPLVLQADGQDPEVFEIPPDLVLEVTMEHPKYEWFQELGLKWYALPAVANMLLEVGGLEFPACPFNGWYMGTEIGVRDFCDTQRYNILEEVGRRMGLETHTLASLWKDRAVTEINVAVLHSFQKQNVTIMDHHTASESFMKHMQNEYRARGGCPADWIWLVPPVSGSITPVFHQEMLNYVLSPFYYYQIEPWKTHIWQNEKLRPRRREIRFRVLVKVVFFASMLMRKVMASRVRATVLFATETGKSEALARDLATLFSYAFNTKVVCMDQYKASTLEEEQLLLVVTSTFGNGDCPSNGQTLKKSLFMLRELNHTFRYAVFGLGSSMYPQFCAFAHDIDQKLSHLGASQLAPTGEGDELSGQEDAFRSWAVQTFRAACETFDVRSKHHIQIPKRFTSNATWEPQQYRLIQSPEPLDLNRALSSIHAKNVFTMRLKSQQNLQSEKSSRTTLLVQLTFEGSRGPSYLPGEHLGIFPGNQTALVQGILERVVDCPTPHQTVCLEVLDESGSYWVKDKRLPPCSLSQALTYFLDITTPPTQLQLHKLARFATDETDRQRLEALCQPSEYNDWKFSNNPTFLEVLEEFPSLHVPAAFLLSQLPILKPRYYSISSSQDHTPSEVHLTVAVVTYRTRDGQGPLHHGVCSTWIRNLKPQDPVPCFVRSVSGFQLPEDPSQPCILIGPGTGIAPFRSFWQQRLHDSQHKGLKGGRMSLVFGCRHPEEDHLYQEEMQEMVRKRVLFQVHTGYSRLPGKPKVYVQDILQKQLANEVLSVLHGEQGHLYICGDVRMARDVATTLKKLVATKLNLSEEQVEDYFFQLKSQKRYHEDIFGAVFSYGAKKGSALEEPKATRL

SMILES | Ratio Ki(app) [1] | Ratio Ki(app) [2] | Ki (Nitric oxide synthase 3) [µM] | Ki (Nitric oxide synthase 1) [µM] | Ki [3] [µM]
N=C(Nc1cccc(CCc2cccc(NC(=N)c3cccs3)c2)c1)c1cccs1 | 89 | 141 | 66 | 0.739 | 104
NC(=Nc1cccc(OCCOc2cccc(N=C(N)c3cccs3)c2)c1)c1cccs1 |  |  | 13.7 | 0.13 | 66.8
NC(=Nc1cccc(Cc2cccc(N=C(N)c3cccs3)c2)c1)c1cccs1 |  |  | 133 |  | 79

Results, then the compound that gave them:

Ratio Ki(app) [1] | Ratio Ki(app) [2] | Ki (Nitric oxide synthase 3) [µM] | Ki (Nitric oxide synthase 1) [µM] | Ki [3] [µM] | SMILES
105 | 513 |  |  |  | N=C(Nc1cccc(OCCOc2cccc(NC(=N)c3cccs3)c2)c1)c1cccs1
225 | 84 | 177 | 0.787 | 66.4 | N=C(Nc1cccc(-c2cccc(NC(=N)c3cccs3)c2)c1)c1cccs1
17 | 53 | 4 | 0.237 | 12.6 | N=C(Nc1cccc(OCCCOc2cccc(NC(=N)c3cccs3)c2)c1)c1cccs1
